From ChEMBL document CHEMBL5316357, “Discovery of Linvencorvir (RG7907), a Hepatitis B Virus Core Protein Allosteric Modulator, for the Treatment of Chronic HBV Infection” (J Med Chem, 2023)

Tests used:
[1] = test system: Hepatitis B virus; assay: Antiviral activity against HBV stably transfected in human HepG2.2.15 cells assessed as reduction of HBV DNA replication incubated for 5 days by q-PCR analysis; type: functional, organism-based; conditions: HepG2 2.2.15, 120 h
[2] = Cytotoxicity against human HepDE19 cells assessed as reduction in cell viability incubated for 5 days by CCK-8 assay; type: functional; conditions: HepDE19, 120 h, time 5 day
[3] = Clearance in human liver microsomes at 1 uM measured upto 30 mins in presence of NADPH by LC-MS/MS analysis; type: ADME, Microsome
[4] = Induction of CYP3A4 mRNA expression level in human hepatocytes at 10 uM incubated for 24 hrs by q-PCR analysis; type: ADME, cell-based, Hepatocyte
[5] = target: Voltage-gated inwardly rectifying potassium channel KCNH2 (Homo sapiens, UniProt Q12809); assay: (§1) Inhibition of hERG stably expressed in CHO cells by whole-cell voltage-clamp assay; type: toxicity, cell-based
Sequence of Voltage-gated inwardly rectifying potassium channel KCNH2 (Q12809 whole entry): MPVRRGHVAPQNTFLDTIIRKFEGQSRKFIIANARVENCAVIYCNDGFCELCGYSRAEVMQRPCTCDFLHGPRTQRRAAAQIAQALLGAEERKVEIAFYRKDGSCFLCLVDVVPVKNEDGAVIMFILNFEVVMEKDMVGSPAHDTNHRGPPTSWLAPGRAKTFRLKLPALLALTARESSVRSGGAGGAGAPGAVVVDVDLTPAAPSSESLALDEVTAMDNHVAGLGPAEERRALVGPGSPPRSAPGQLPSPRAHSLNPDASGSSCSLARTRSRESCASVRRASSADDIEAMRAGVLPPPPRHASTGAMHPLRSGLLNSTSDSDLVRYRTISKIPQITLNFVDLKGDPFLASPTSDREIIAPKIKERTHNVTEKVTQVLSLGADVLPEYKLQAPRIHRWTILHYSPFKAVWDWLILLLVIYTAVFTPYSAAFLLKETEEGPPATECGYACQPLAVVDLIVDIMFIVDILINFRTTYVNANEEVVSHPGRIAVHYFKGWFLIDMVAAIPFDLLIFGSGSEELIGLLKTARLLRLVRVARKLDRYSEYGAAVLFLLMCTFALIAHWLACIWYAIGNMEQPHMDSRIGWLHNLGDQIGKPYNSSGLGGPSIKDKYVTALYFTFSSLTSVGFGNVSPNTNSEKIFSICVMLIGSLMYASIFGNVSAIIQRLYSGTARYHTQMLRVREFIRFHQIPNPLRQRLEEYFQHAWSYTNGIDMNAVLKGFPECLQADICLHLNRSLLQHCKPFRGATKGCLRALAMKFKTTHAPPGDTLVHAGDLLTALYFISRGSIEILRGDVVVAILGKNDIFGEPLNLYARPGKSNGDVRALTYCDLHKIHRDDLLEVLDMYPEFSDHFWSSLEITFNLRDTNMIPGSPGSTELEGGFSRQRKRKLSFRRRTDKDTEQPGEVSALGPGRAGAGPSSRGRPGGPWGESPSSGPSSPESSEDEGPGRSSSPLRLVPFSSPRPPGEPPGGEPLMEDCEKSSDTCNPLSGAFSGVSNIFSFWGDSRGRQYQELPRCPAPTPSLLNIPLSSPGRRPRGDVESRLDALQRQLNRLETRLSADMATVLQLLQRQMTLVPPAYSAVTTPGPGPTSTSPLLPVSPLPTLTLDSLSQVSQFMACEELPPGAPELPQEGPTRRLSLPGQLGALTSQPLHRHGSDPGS

[6] = target: hERG (Homo sapiens, UniProt Q12809); assay: as §1; type: toxicity, cell-based; conditions: human, CHO cells stably expressing hERG
Sequence of hERG (Q12809 whole entry): as above

[7] = Octanol-water partition coefficient, logD of the compound at pH 7.4; type: physicochemical
[8] = AUC (0-infinity) in rat plasma at 3 mg/kg,po; type: ADME, organism-based; set-up: dose 3 mg/kg, route po; conditions: in vivo
[9] = Oral bioavailability in rat plasma at 3 mg/kg; type: ADME, organism-based; conditions: in vivo, po, 3 mg/kg
[10] = Clearance in human hepatocyte at 2 uM measured upto 120 mins by LC-MS/MS analysis; type: ADME, cell-based; conditions: hepatocytes
[11] = Clearance in rat hepatocyte at 2 uM measured upto 120 mins by LC-MS/MS analysis; type: ADME, cell-based; conditions: hepatocytes
[12] = Half life in mouse plasma at 1 mg/kg,iv; type: ADME, organism-based
[13] = Volume of distribution at steady state in mouse plasma at 1 mg/kg,iv; type: ADME, organism-based; conditions: read-out: Vdss
[14] = Clearance in mouse plasma at 1 mg/kg,iv; type: ADME, organism-based
[15] = AUC (0-infinity) in mouse plasma at 1 mg/kg,iv; type: ADME, organism-based; set-up: dose 1 mg/kg, route iv; conditions: in vivo
[16] = AUC (0-infinity) in mouse plasma at 3 mg/kg,po; type: ADME, organism-based; set-up: dose 3 mg/kg, route po; conditions: in vivo
[17] = Oral bioavailability in mouse plasma at 3 mg/kg; type: ADME, organism-based; conditions: in vivo

Row | Structure (SMILES) | EC50 [1] [nM] | CLhep predicted at 1 µM [3] [mL/min/kg] | Activity [4] [%] | CC50 [2] [nM] | also measured
1 | COC(=O)C1=C(CN2CCN3C(=O)N([C@H]4C[C@@H](C(=O)O)C4)C[C@@H]3C2)NC(c2nccs2)=N[C@H]1c1ccc(F)cc1Cl | 30 | 0.4 | – | > 100000 | –
2 | COC(=O)C1=C(CN2CCN3C(=O)CC[C@@H]3C2)NC(c2nccs2)=N[C@H]1c1ccc(F)cc1Cl | 14 | – | 44 | 45000 | –
3 | COC(=O)C1=C(CN2CCN3C(=O)N(CCC(C)(C)C(=O)O)C[C@@H]3C2)NC(c2nccs2)=N[C@H]1c1ccc(F)cc1Cl | 8 | 4.6 | 0 | > 100000 | –
4 | COC(=O)C1=C(CN2CCN3C(=O)N([C@H]4C[C@H](C(=O)O)C4)C[C@@H]3C2)NC(c2nccs2)=N[C@H]1c1ccc(F)cc1Cl | 34 | – | – | 43000 | –
5 | COC(=O)C1=C(CN2CCN3C(=O)N([C@H]4CC[C@H](C(=O)O)CC4)C[C@@H]3C2)NC(c2nccs2)=N[C@H]1c1ccc(F)cc1Cl | 9 | 5.2 | – | 43000 | –
6 | CCOC(=O)C1=C(CN2CCN3C(=O)N(c4ccc(C(=O)O)cc4)C[C@@H]3C2)NC(c2nccs2)=N[C@H]1c1ccc(F)cc1Cl (single isomer, unassigned) | 2 | – | – | 28000 | –
7 | COC(=O)C1=C(CN2CCN3C(=O)N(c4cccc(C(=O)O)c4)C[C@@H]3C2)NC(c2nccs2)=N[C@H]1c1ccc(F)cc1Cl (single isomer, unassigned) | 7 | 0.3 | – | 33000 | –
8 | COC(=O)C1=C(CN2CCN3C(=O)COCC3C2)NC(c2nccs2)=N[C@H]1c1ccc(F)cc1Cl (stereo partly specified) | 55 | – | – | 68000 | –
9 | COC(=O)C1=C(CN2CCN3C(=O)N(C4CCC(C(=O)O)CC4)C[C@@H]3C2)NC(c2nccs2)=N[C@H]1c1ccc(F)cc1Cl (stereo partly specified) | 9 | 8.1 | 0 | 70000 | IC50 [5]: > 20000 nM; IC20 [6]: > 10000 nM
10 | CCOC(=O)C1=C(CN2CCN3C(=O)N(CC(C)(C)C(=O)O)C[C@@H]3C2)NC(c2nccs2)=N[C@H]1c1ccc(F)c(F)c1C | 3 | – | – | > 100000 | AUC [8]: 43 ng·h/mL; F [9]: 7.4%; logD [7]: 2
11 | CCOC(=O)C1=C(CN2CCN3C(=O)N(c4ccccc4C(=O)O)C[C@@H]3C2)NC(c2nccs2)=N[C@H]1c1ccc(F)cc1Cl (single isomer, unassigned) | 30 | 4.4 | – | – | –
12 | CCOC(=O)C1=C(CN2CCN3C(=O)N(C(C)(C)C(=O)O)C[C@@H]3C2)NC(c2nccs2)=N[C@H]1c1ccc(F)cc1Cl | 200 | 1.6 | – | 61000 | –
13 | COC(=O)C1=C(CN2CCN3C(=O)N(C(C)(C)CC(=O)O)C[C@@H]3C2)NC(c2nccs2)=N[C@H]1c1ccc(F)cc1Cl | 30 | 2.5 | – | > 100000 | –
14 | CCOC(=O)C1=C(CN2C[C@H]3CN(C)C(=O)N3C[C@@H]2C(=O)O)NC(c2nccs2)=N[C@H]1c1cccc(F)c1Cl | 2 | 5.8 | 1.7 | > 100000 | IC50 [5]: > 20000 nM; IC20 [6]: > 10000 nM
15 | COC(=O)C1=C(CN2CCN(C(C)=O)CC2)NC(c2nccs2)=N[C@H]1c1ccc(F)cc1Cl | 50 | – | – | > 100000 | –
16 | COC(=O)C1=C(CN2CCN3C(=O)NC[C@@H]3C2)NC(c2nccs2)=N[C@H]1c1ccc(F)cc1Cl | 2 | – | 17 | 52000 | –
17 | COC(=O)C1=C(CN2CCN3C(=O)N(CC(C)(C)C(=O)O)C[C@@H]3C2)NC(c2nccs2)=N[C@H]1c1cccc(F)c1C | 16 | – | – | > 100000 | logD [7]: 1.26
18 | COC(=O)C1=C(CN2CCN3C(=O)NC[C@H]3C2)NC(c2nccs2)=N[C@H]1c1ccc(F)cc1Cl | 150 | – | – | 89000 | –
19 | COC(=O)C1=C(CN2CCOC[C@H]2C(=O)O)N=C(c2nccs2)N[C@H]1c1ccc(F)cc1Cl | 3 | – | 110 | > 100000 | –
20 | COC(=O)C1=C(CN2CCN3C(=O)OC[C@@H]3C2)NC(c2nccs2)=N[C@H]1c1ccc(F)cc1Cl | 3 | – | 70 | 79000 | –
21 | COC(=O)C1=C(CN2CCN3C(=O)OC[C@H]3C2)NC(c2nccs2)=N[C@H]1c1ccc(F)cc1Cl | 23 | – | – | 76000 | –

The next lines start with results.

Row | EC50 [1] [nM] | CLhep predicted at 1 µM [3] [mL/min/kg] | Activity [4] [%] | Structure (SMILES) | CC50 [2] [nM] | also measured
22 | 150 | – | – | CCOC(=O)C1=C(CN2C[C@H]3CN(C)C(=O)N3C[C@H]2C(=O)O)NC(c2nccs2)=N[C@H]1c1cccc(F)c1Cl | > 100000 | –
23 | 2 | 2.7 | 6 | CCOC(=O)C1=C(CN2C[C@H]3CN(C4CC4)C(=O)N3C[C@@H]2C(=O)O)NC(c2nccs2)=N[C@H]1c1ccc(F)cc1Cl | > 100000 | IC50 [5]: > 20000 nM; IC20 [6]: > 10000 nM
24 | 160 | – | – | COC(=O)C1=C(CN2CCN3C(=O)CC[C@H]3C2)NC(c2nccs2)=N[C@H]1c1ccc(F)cc1Cl | 71000 | –
25 | 14 | – | – | COC(=O)C1=C(CN2CCN3C(=O)N(CC(C)(C)C(=O)O)C[C@@H]3C2)NC(c2nccs2)=N[C@H]1c1cccc(F)c1Cl | > 100000 | logD [7]: 1.21
26 | 750 | – | 13 | COC(=O)C1=C(CN2CCc3c([nH][nH]c3=O)C2)NC(c2nccs2)=N[C@H]1c1ccc(F)cc1Cl | > 100000 | –
27 | 6 | 2 | 0.6 | COC(=O)C1=C(CN2CCN3C(=O)N(CC(C)(C)C(=O)O)C[C@@H]3C2)NC(c2nccs2)=N[C@H]1c1ccc(F)cc1Cl | > 100000 | IC50 [5]: > 20000 nM; IC20 [6]: > 10000 nM; AUC [8]: 26 ng·h/mL; F [9]: 7.1%; CLhep predicted at 2 µM [10]: 9.2 mL/min/kg; CLhep predicted at 2 µM [11]: 14 mL/min/kg; logD [7]: 1.18
28 | 62 | – | – | CCOC(=O)C1=C(CN2C[C@H]3CN(C(C)(C)C)C(=O)N3C[C@H]2C(=O)O)NC(c2nccs2)=N[C@H]1c1ccc(F)cc1Cl | > 100000 | –
29 | 6 | – | – | COC(=O)C1=C(CN2CCN3C(=O)N(CC(C)(C)C(=O)O)C[C@@H]3C2)NC(c2nccs2)=N[C@H]1c1ccc(F)c(F)c1C | 94000 | AUC [8]: 43 ng·h/mL; F [9]: 14%; CLhep predicted at 2 µM [10]: 2.4 mL/min/kg; CLhep predicted at 2 µM [11]: 16 mL/min/kg; logD [7]: 1.51
30 | 11 | 0.3 | – | COC(=O)C1=C(CN2CCN3C(=O)N(CC4(C(=O)O)CC4)C[C@@H]3C2)NC(c2nccs2)=N[C@H]1c1ccc(F)cc1Cl | > 100000 | IC50 [5]: 7800 nM; IC20 [6]: 2300 nM
31 | 16 | 2.7 | 2.4 | CCOC(=O)C1=C(CN2CCN3C(=O)N(CC(C)C(=O)O)C[C@@H]3C2)NC(c2nccs2)=N[C@H]1c1ccc(F)cc1Cl (stereo partly specified) | > 100000 | IC50 [5]: > 20000 nM; IC20 [6]: > 10000 nM
32 | 9 | – | – | CCOC(=O)C1=C(CN2CCN3C(=O)N(CC(C)(C)C(=O)O)C[C@@H]3C2)NC(c2nccs2)=N[C@H]1c1ccc(F)cc1Cl | 77000 | half-life [12]: 54 min; Vd [13]: 2.2 L/kg; clearance [14]: 58 mL/min/kg; AUC [15]: 323 ng·h/mL; AUC [8]: 70 ng·h/mL; AUC [16]: 38 ng·h/mL; F [9]: 15.6%; F [17]: 12%; CLhep predicted at 2 µM [10]: 0.6 mL/min/kg; CLhep predicted at 2 µM [11]: 22 mL/min/kg; logD [7]: 1.67
33 | 145 | 1.7 | – | CCOC(=O)C1=C(CN2C[C@H]3CN(C4CC4)C(=O)N3C[C@H]2C(=O)O)NC(c2nccs2)=N[C@H]1c1ccc(F)cc1Cl | > 100000 | –
34 | 11 | 2.3 | 2.2 | COC(=O)C1=C(CN2CCN3C(=O)N(CC4(C(=O)O)CCC4)C[C@@H]3C2)NC(c2nccs2)=N[C@H]1c1ccc(F)cc1Cl | > 100000 | IC50 [5]: > 20000 nM; IC20 [6]: 7200 nM
35 | 100 | – | – | COC(=O)C1=C(CN2CCN3C(=O)OCCC3C2)NC(c2nccs2)=N[C@H]1c1ccc(F)cc1Cl (stereo partly specified) | 62000 | –
36 | > 1000 | – | – | COC(=O)C1=C(CN2CCN3CCCC3C2)NC(c2nccs2)=N[C@H]1c1ccc(F)cc1Cl (stereo partly specified) | – | –
37 | 2 | 0.43 | – | COC(=O)C1=C(CN2CCN3C(=O)N(c4ccc(C(=O)O)cc4)C[C@@H]3C2)NC(c2nccs2)=N[C@H]1c1ccc(F)cc1Cl (single isomer, unassigned) | – | IC50 [5]: > 10000 nM; IC20 [6]: 4000 nM
